Numbers after ± are expanded uncertainties.
Assay: xn = mol fraction of the nth substance listed
Conditions: 273.15 K, Fluid (supercritical or subcritical phases), x1 = 0.97; for mass density: Vibrating tube method; for speed of sound: Frequency=5 MHz, Pulse-echo method

O=C=O [carbon dioxide] + CO
Conditions	mass density [kg/m3]	speed of sound [m/s]
14050 kPa	992.7 ± 0.8	–
14075 kPa	992.85 ± 0.8	–
14100 kPa	992.93 ± 0.8	–
14125 kPa	993.06 ± 0.8	–
14150 kPa	993.17 ± 0.8	–
14175 kPa	993.26 ± 0.8	–
14200 kPa	993.38 ± 0.8	–
14225 kPa	993.5 ± 0.8	–
14250 kPa	993.58 ± 0.8	–
14275 kPa	993.7 ± 0.8	–
14300 kPa	993.82 ± 0.8	–
14325 kPa	993.9 ± 0.8	–
14350 kPa	994 ± 0.8	–
14375 kPa	994.12 ± 0.8	–
14400 kPa	994.23 ± 0.8	–
14425 kPa	994.35 ± 0.8	–
14450 kPa	994.42 ± 0.8	–
14475 kPa	994.54 ± 0.8	–
14500 kPa	994.65 ± 0.8	–
14525 kPa	994.75 ± 0.8	–
14550 kPa	994.85 ± 0.8	–
14575 kPa	994.96 ± 0.8	–
14600 kPa	995.07 ± 0.8	–
14625 kPa	995.18 ± 0.8	–
14650 kPa	995.29 ± 0.8	–
14675 kPa	995.37 ± 0.8	–
14700 kPa	995.5 ± 0.8	–
14725 kPa	995.62 ± 0.8	–
14750 kPa	995.7 ± 0.8	–
14775 kPa	995.81 ± 0.8	–
14800 kPa	995.94 ± 0.8	–
14825 kPa	996.02 ± 0.8	–
14850 kPa	996.12 ± 0.8	–
14875 kPa	996.27 ± 0.8	–
14900 kPa	996.34 ± 0.8	688.9 ± 1
14925 kPa	996.43 ± 0.8	–
14950 kPa	996.51 ± 0.8	–
14975 kPa	996.65 ± 0.8	–
15000 kPa	996.75 ± 0.8	–
15025 kPa	996.84 ± 0.8	–
15050 kPa	996.94 ± 0.8	–
15075 kPa	997.08 ± 0.8	–
15100 kPa	997.16 ± 0.8	–
15125 kPa	997.24 ± 0.8	–
15150 kPa	997.37 ± 0.8	–
15175 kPa	997.49 ± 0.8	–
15200 kPa	997.57 ± 0.8	–
15225 kPa	997.66 ± 0.8	–
15250 kPa	997.8 ± 0.8	–
15275 kPa	997.89 ± 0.8	–
15300 kPa	997.98 ± 0.8	–
15325 kPa	998.14 ± 0.8	–
15350 kPa	998.19 ± 0.8	–
15375 kPa	998.3 ± 0.8	–
15400 kPa	998.38 ± 0.8	–
15425 kPa	998.5 ± 0.8	–
15450 kPa	998.63 ± 0.8	–
15475 kPa	998.71 ± 0.8	–
15500 kPa	998.79 ± 0.8	–
15525 kPa	998.89 ± 0.8	–
15550 kPa	999.03 ± 0.8	–
15575 kPa	999.11 ± 0.8	–
15600 kPa	999.22 ± 0.8	–
15625 kPa	999.34 ± 0.8	–
15650 kPa	999.41 ± 0.8	–
15675 kPa	999.52 ± 0.8	–
15700 kPa	999.63 ± 0.8	–
15725 kPa	999.76 ± 0.8	–
15750 kPa	999.85 ± 0.8	–
15775 kPa	999.93 ± 0.8	–
15800 kPa	1000.03 ± 0.8	–
15825 kPa	1000.09 ± 0.8	–
15850 kPa	1000.25 ± 0.8	–
15875 kPa	1000.33 ± 0.8	–
15900 kPa	1000.44 ± 0.8	–
15925 kPa	1000.5 ± 0.8	–
15950 kPa	1000.59 ± 0.8	–
15975 kPa	1000.74 ± 0.8	–
16000 kPa	1000.82 ± 0.8	–
16025 kPa	1000.92 ± 0.8	–
16050 kPa	1001.03 ± 0.8	–
16075 kPa	1001.14 ± 0.8	–
16100 kPa	1001.23 ± 0.8	–
16125 kPa	1001.34 ± 0.8	–
16150 kPa	1001.44 ± 0.8	–
16175 kPa	1001.55 ± 0.8	–
16200 kPa	1001.64 ± 0.8	–
16225 kPa	1001.73 ± 0.8	–
16250 kPa	1001.84 ± 0.8	–
16275 kPa	1001.95 ± 0.8	–
16300 kPa	1002.05 ± 0.8	–
16325 kPa	1002.16 ± 0.8	–
16350 kPa	1002.26 ± 0.8	–
16375 kPa	1002.35 ± 0.8	–
16400 kPa	1002.44 ± 0.8	–
16425 kPa	1002.55 ± 0.8	–
16450 kPa	1002.64 ± 0.8	–
16475 kPa	1002.73 ± 0.8	–
16500 kPa	1002.82 ± 0.8	–
16525 kPa	1002.92 ± 0.8	–
16550 kPa	1003.07 ± 0.8	–
16575 kPa	1003.15 ± 0.8	–
16600 kPa	1003.23 ± 0.8	–
16625 kPa	1003.31 ± 0.8	–
16650 kPa	1003.43 ± 0.8	–
16675 kPa	1003.55 ± 0.8	–
16700 kPa	1003.63 ± 0.8	–
16725 kPa	1003.75 ± 0.8	–
16750 kPa	1003.86 ± 0.8	–
16775 kPa	1003.93 ± 0.8	–
16800 kPa	1004.01 ± 0.8	–
16825 kPa	1004.09 ± 0.8	–
16850 kPa	1004.25 ± 0.8	–
16875 kPa	1004.31 ± 0.8	–
16900 kPa	1004.4 ± 0.8	–
16925 kPa	1004.53 ± 0.8	–
16950 kPa	1004.6 ± 0.8	–
16975 kPa	1004.73 ± 0.8	–
17000 kPa	1004.82 ± 0.8	–
17025 kPa	1004.89 ± 0.8	–
17050 kPa	1005.04 ± 0.8	–
17075 kPa	1005.11 ± 0.8	–
17100 kPa	1005.21 ± 0.8	–
17125 kPa	1005.3 ± 0.8	–
17150 kPa	1005.42 ± 0.8	–
17175 kPa	1005.49 ± 0.8	–
17200 kPa	1005.63 ± 0.8	–
17225 kPa	1005.7 ± 0.8	–
17250 kPa	1005.78 ± 0.8	–
17275 kPa	1005.9 ± 0.8	–
17300 kPa	1006.03 ± 0.8	–
17325 kPa	1006.1 ± 0.8	–
17350 kPa	1006.19 ± 0.8	–
17375 kPa	1006.3 ± 0.8	–
17400 kPa	1006.36 ± 0.8	–
17425 kPa	1006.5 ± 0.8	–
17450 kPa	1006.55 ± 0.8	–
17475 kPa	1006.68 ± 0.8	–
17500 kPa	1006.76 ± 0.8	–
17525 kPa	1006.86 ± 0.8	–
17550 kPa	1006.92 ± 0.8	–
17575 kPa	1007.06 ± 0.8	–
17600 kPa	1007.11 ± 0.8	–
17625 kPa	1007.24 ± 0.8	–
17650 kPa	1007.37 ± 0.8	–
17675 kPa	1007.42 ± 0.8	–
17700 kPa	1007.56 ± 0.8	–
17725 kPa	1007.61 ± 0.8	–
17750 kPa	1007.74 ± 0.8	–
17775 kPa	1007.82 ± 0.8	–
17800 kPa	1007.92 ± 0.8	–
17825 kPa	1008.05 ± 0.8	–
17850 kPa	1008.1 ± 0.8	–
17875 kPa	1008.22 ± 0.8	–
17900 kPa	1008.28 ± 0.8	–
17925 kPa	1008.41 ± 0.8	–
17950 kPa	1008.47 ± 0.8	–
17975 kPa	1008.58 ± 0.8	–
18000 kPa	1008.63 ± 0.8	–
18025 kPa	1008.76 ± 0.8	–
18050 kPa	1008.81 ± 0.8	–
18075 kPa	1008.93 ± 0.8	–
18100 kPa	1009.05 ± 0.8	–
18125 kPa	1009.17 ± 0.8	–
18150 kPa	1009.21 ± 0.8	–
18175 kPa	1009.33 ± 0.8	–
18200 kPa	1009.44 ± 0.8	–
18225 kPa	1009.49 ± 0.8	–
18250 kPa	1009.61 ± 0.8	–
18275 kPa	1009.68 ± 0.8	–
18300 kPa	1009.76 ± 0.8	–
18325 kPa	1009.88 ± 0.8	–
18350 kPa	1009.93 ± 0.8	–
18375 kPa	1010.03 ± 0.8	–
18400 kPa	1010.15 ± 0.8	–
18425 kPa	1010.26 ± 0.8	–
18450 kPa	1010.33 ± 0.8	–
18475 kPa	1010.41 ± 0.8	–
18500 kPa	1010.52 ± 0.8	–
18525 kPa	1010.58 ± 0.8	–
18550 kPa	1010.7 ± 0.8	–
18575 kPa	1010.82 ± 0.8	–
18600 kPa	1010.88 ± 0.8	–
18625 kPa	1010.99 ± 0.8	–
18650 kPa	1011.1 ± 0.8	–
18675 kPa	1011.15 ± 0.8	–
18700 kPa	1011.25 ± 0.8	–
18725 kPa	1011.35 ± 0.8	–
18750 kPa	1011.46 ± 0.8	–
18775 kPa	1011.49 ± 0.8	–
18800 kPa	1011.59 ± 0.8	–
18825 kPa	1011.7 ± 0.8	–
18850 kPa	1011.81 ± 0.8	–
18875 kPa	1011.88 ± 0.8	–
18900 kPa	1011.94 ± 0.8	–
18925 kPa	1012.05 ± 0.8	–
18950 kPa	1012.15 ± 0.8	–
18975 kPa	1012.26 ± 0.8	–
19000 kPa	1012.37 ± 0.8	–
19025 kPa	1012.45 ± 0.8	–
19050 kPa	1012.49 ± 0.8	–
19075 kPa	1012.6 ± 0.8	–
19100 kPa	1012.7 ± 0.8	–
19125 kPa	1012.77 ± 0.8	–
19150 kPa	1012.83 ± 0.8	–
19175 kPa	1012.93 ± 0.8	–
19200 kPa	1013.04 ± 0.8	–
19225 kPa	1013.15 ± 0.8	–
19250 kPa	1013.25 ± 0.8	–
19275 kPa	1013.27 ± 0.8	–
19300 kPa	1013.37 ± 0.8	–
19325 kPa	1013.48 ± 0.8	–
19350 kPa	1013.58 ± 0.8	–
19375 kPa	1013.61 ± 0.8	–
19400 kPa	1013.72 ± 0.8	–
19425 kPa	1013.82 ± 0.8	–
19450 kPa	1013.91 ± 0.8	–
19475 kPa	1013.95 ± 0.8	–
19500 kPa	1014.05 ± 0.8	–
19525 kPa	1014.15 ± 0.8	–
19550 kPa	1014.24 ± 0.8	–
19575 kPa	1014.34 ± 0.8	–
19600 kPa	1014.44 ± 0.8	–
19625 kPa	1014.47 ± 0.8	–
19650 kPa	1014.56 ± 0.8	–
19675 kPa	1014.66 ± 0.8	–
19700 kPa	1014.76 ± 0.8	–
19725 kPa	1014.86 ± 0.8	–
19750 kPa	1014.88 ± 0.8	–
19775 kPa	1014.98 ± 0.8	–
19800 kPa	1015.08 ± 0.8	–
19825 kPa	1015.19 ± 0.8	–
19850 kPa	1015.29 ± 0.8	–
19875 kPa	1015.31 ± 0.8	–
19900 kPa	1015.41 ± 0.8	–
19910 kPa	–	735.5 ± 1
19925 kPa	1015.5 ± 0.8	–
19950 kPa	1015.6 ± 0.8	–
19975 kPa	1015.7 ± 0.8	–
20000 kPa	1015.77 ± 0.8	–
24940 kPa	–	776.2 ± 1.1
29980 kPa	–	812.6 ± 1.1
35030 kPa	–	845.6 ± 1.1

Reference: the NIST ThermoML archive (doi:10.1016/j.jct.2016.03.026)
